Results as given in patent US7528106B2, “Compositions and methods for treatment of neovascular diseases” (The Scripps Research Institute, priority 2004, dated 2009).
“And” between values parts separate entries of the source, which are not always exact repeats. Equal entries are not always repeated.

System: deep retinal vascular network formation in neonatal Balb/C mice
Test: Neonatal mouse retinal angiogenesis model
Type: in vivo
From the text: Description of the Model. Immediately after birth (postnatal day zero; “P0”), retinal vasculature is virtually absent in the mouse. By four weeks after birth (P28) the retina has attained an adult pattern of retinal vessels coincident with the onset of vision. Physiological neovascularization of the retina occurs during this period via a stereotypical, biphasic developmental pattern of angiogenesis. During the primary phase of retinal vascular development, spoke-like peripapillary vessels grow radially from the central retinal artery and vein, becoming progressively interconnected by a capillary plexus that forms between them. This “inner retinal plexus” grows in area, volume and complexity, centrifugally, as a monolayer within the nerve fiber layer during the first seven to ten days following birth.
The second phase of retinal vessel formation begins between postnatal days 7 (P7) and 10 (P10) when collateral branches sprout from capillaries of the superficial plexus and penetrate into the retina where their tips branch and anastamose laterally to form a planar “deep vascular plexus”. While the deep vascular plexus is in place by P14, it undergoes extensive remodeling from P14 to P21. It is of interest to note that the formation of these vascular networks in the neonatal mouse are strikingly similar to the events occurring in the third trimester human fetus.
Advantages and Quantification of the Model. The reproducibility of the murine retinal development process and its easy accessibility in neonatal animals provide an opportunity to assess the efficacy of antiangiogenic compounds in a physiologically relevant model of angiogenesis. Additional advantages of the neonatal mouse model are the ability to qualitatively and quantitatively evaluate the angiostatic effect of putative antagonists of angiogenesis. Angiostatic activity was evaluated based upon the degree of angiogenesis in the deep, outer retinal vascular layer (secondary layer) that develops between P8 and P12. The appearance of the inner blood vessel network (primary layer) was evaluated for normal development and signs of toxicity.
Preparation of Compositions. Peptidomimetic integrin signaling inhibitor Compound (1) is solubilized in PBS at a concentration of about 20 mg/ml in PBS (1× concentration). T2-TrpRS is solubilized in PBS at a concentration of about 0.5 mg/ml (1× concentration). VEGF aptamer (pegaptanib sodium; Compound (2)) is solubilized in PBS at a concentration of about 2 mg/ml (1× concentration) to achieve an injection of approximately 1 μg/eye at 1× concentration. For all combination assays the compounds were prepared at 2 or 3 times the 1× concentration of each material and then combined to produce a final solution containing each individual compound at the same concentration as was used alone (e.g., 1×, 0.5×, 0.25× or 0.1×, as the case may be). For all assays, a single injection of 0.5 μl of PBS solutions of the drugs was administered intravitreally regardless of the number of compounds being injected. As used herein, the term “0.1×” refers to one tenth of the 1× concentration of a given material, “0.25×” refers to one quarter of the 1× concentration of a given material, “0.5×” refers to one half of the 1× concentration of a given material, and so forth for similar designations.
An in vivo angiogenesis assay in the neonatal mouse (Balb/C, The Jackson Laboratory, Bar Harbor, Me.) was used to evaluate the angiostatic activity of integrin signaling inhibitor Compound (1), T2-TrpRS, and VEGF aptamer Compound (2). Intravitreous injection and retina isolation was performed with a dissecting microscope (SMZ 645, Nikon, Japan). […] The samples (0.5 μl) were injected with a Hamilton syringe fitted with a 32-gauge needle (Hamilton Company, Reno, Nev.). The injection was made between the equator and the corneal limbus. During injection, the location of the needle tip was monitored by direct visualization to determine that it was in the vitreal cavity. […]

[1] = Ex 1, 0.1× (1×=20 mg/ml), intravitreal P8, read P12
[2] = Ex 5, 0.5× (1×=20 mg/ml), intravitreal P4, read P12
[3] = Ex 6, 0.5× (1×=20 mg/ml), intravitreal P4, read P12
[4] = Ex 7, 0.5× (1×=20 mg/ml), intravitreal P4, read P12
[5] = Ex 9, 1× of each (Comp. (1) 20, Comp. (2) 2, T2-TrpRS 0.5 mg/ml), intravitreal P4, read P12
[6] = Table 12, composite data from the Examples, 1×-2×
[7] = Table 13A, 5-10 μg per eye, intravitreal P7, read P12
[8] = Table 13C low dosing, 0.1x (integrin ant. 1.0 μg, VEGF apt. 0.20 μg, T2-TrpRS 0.025 μg)

CC(C)(C)COC(=O)N[C@@H](Cc1ccc2c(c1)NC(=O)[C@@H](CCC(=O)Nc1ncc[nH]1)O2)C(=O)[O-].[Na+] [Compound (1)]
inhibition of neovascularization (0.1× concentrations (1 μg/eye integrin antagonist, 0.2 μg/eye VEGF aptamer, 0.025 μg/eye T2-TrpRS)): negligible | % of eyes with 0-10% inhibition of deep vascular layer [1]: 40% | % of eyes with 10-25% inhibition of deep vascular layer [1]: 0.5% | % of eyes with 25-50% inhibition of deep vascular layer [1]: 20% | % of eyes with 50-75% inhibition of deep vascular layer [1]: 20% | % of eyes with 75-100% inhibition of deep vascular layer [1]: 20% | % of eyes with 0-10% inhibition of deep vascular layer [2]: 50% | % of eyes with 10-25% inhibition of deep vascular layer [2]: 33.3% | % of eyes with 25-50% inhibition of deep vascular layer [2]: 16.7% | % of eyes with 50-75% inhibition of deep vascular layer [2]: 0% | % of eyes with 75-100% inhibition of deep vascular layer [2]: 0% | % of eyes with 100% inhibition of deep vascular layer [2]: 0% | % of eyes with >95% inhibition of deep vascular layer [2]: 0% | % of eyes with 0-10% inhibition of deep vascular layer [3]: 50% | % of eyes with 10-25% inhibition of deep vascular layer [3]: 12.5% | % of eyes with 25-50% inhibition of deep vascular layer [3]: 12.5% | % of eyes with 50-75% inhibition of deep vascular layer [3]: 12.5% | % of eyes with 75-100% inhibition of deep vascular layer [3]: 12.5% | % of eyes with 100% inhibition of deep vascular layer [3]: 0% | % of eyes with >95% inhibition of deep vascular layer [3]: 0% | % of eyes with 0-10% inhibition of deep vascular layer [4]: 12.5% | % of eyes with 10-25% inhibition of deep vascular layer [4]: 25% | % of eyes with 25-50% inhibition of deep vascular layer [4]: 12.5% | % of eyes with 50-75% inhibition of deep vascular layer [4]: 12.5% | % of eyes with 75-100% inhibition of deep vascular layer [4]: 37.5% | % of eyes with 100% inhibition of deep vascular layer [4]: 0% | % of eyes with >95% inhibition of deep vascular layer [4]: 0% | % of eyes with 0-10% inhibition of deep vascular layer [5]: 25% | % of eyes with 10-25% inhibition of deep vascular layer [5]: 12.5% | % of eyes with 25-50% inhibition of deep vascular layer [5]: 12.5% | % of eyes with 50-75% inhibition of deep vascular layer [5]: 37.5% | % of eyes with 75-100% inhibition of deep vascular layer [5]: 12.5% | % of eyes with 100% inhibition of deep vascular layer [5]: 0% | % of eyes with >95% inhibition of deep vascular layer [5]: 0% | % of mice with 0-10% inhibition of deep vascular layer [6]: 33.3% | % of mice with 10-25% inhibition of deep vascular layer [6]: 20% | % of mice with 25-50% inhibition of deep vascular layer [6]: 13.3% | % of mice with 50-75% inhibition of deep vascular layer [6]: 16.7% | % of mice with 75-100% inhibition of deep vascular layer [6]: 16.7% | % of mice with 100% inhibition of deep vascular layer [6]: 0% | % of mice with >95% inhibition of deep vascular layer [6]: 0% | Percentage of retinas with 0-10% neovascular inhibition [7]: 33.3% | Percentage of retinas with 10-25% neovascular inhibition [7]: 20.0% | Percentage of retinas with 25-50% neovascular inhibition [7]: 13.3% | Percentage of retinas with 50-75% neovascular inhibition [7]: 16.7% | Percentage of retinas with 100% neovascular inhibition [7]: 0.0% | Percentage of retinas with >75% neovascular inhibition [7]: 16.7% | Percentage of retinas with >90% neovascular inhibition [7]: 0.0% | Percentage of retinas with 0-10% neovascular inhibition [8]: 90% | Percentage of retinas with 10-25% neovascular inhibition [8]: 10% | Percentage of retinas with 25-50% neovascular inhibition [8]: 0% | Percentage of retinas with 50-75% neovascular inhibition [8]: 0% | Percentage of retinas with 100% neovascular inhibition [8]: 0% | Percentage of retinas with >75% neovascular inhibition [8]: 0% | Percentage of retinas with >90% neovascular inhibition [8]: 0% | optimal effective dose (dosing experiments, bell-shaped efficacy curve, listed as integrin antagonist): 5-10 μg per eye and 10-20 nmoles per eye | retinas that exhibited over 75% inhibition (monotherapy at optimal dose): 17% | retinas unaffected by injection (monotherapy at the maximum individual dose): around 35%
